Legend:
bone = experiment: Bone scintigraphy, pyrophosphate compared to polyphosphate; assay type: in vivo; conditions: as compared to polyphosphates, in words
Experimental: The animal was anesthetized with ethylcarbamate after injection and immediately before scintigraphy was carried out. Scintigraphy was carried out after 5 minutes, 1 hour, 2 hours and 4 hours following injection. Two recording methods were applied:
a. conventional scanning,
b. scanning, followed by information treatment for calculating surface activities.

pyrophosphatases = conditions: cited from earlier work

O=P(O)(O)OP(=O)(O)O [pyrophosphate]
time-period before bone scintigraphy (required by elimination from organs) (bone): shorter than in the case of polyphosphates | hydrolysis by pyrophosphatases (pyrophosphatases): rapid hydrolysis

— patent US3931396A, “Method of preparation of a composition having a base of 99^m technetium for diagnosis by scintigraphy” (priority 1974, dated 1976)
